From patent US20150335761A1, “COMPOSITIONS AND METHODS FOR CONTRACEPTION” (priority 2012, published 2015)

How the values were obtained:
[1] = molecular target: Cathepsin B (CB) (Homo sapiens, UniProt P07858); test: in vitro release study of PADM in CB solution; format: biochemical; settings: 37° C., read-out: half-life of ADM release
Excerpt: (§1) Activated CB cleaves the Phe-Lys dipeptide at the Lys-PABC bond. Then, the exposed PABC spacer spontaneously decarboxylates upon deacylation and free ADM molecules are released.

[2] = in vitro release study of PADM in human plasma; format: in vitro ADME; settings: over 6-7 h in human plasma
Excerpt: as §1

For COc1cccc2c1C(=O)c1c(O)c3c(c(O)c1C2=O)C[C@@](O)(C(=O)CO)C[C@@H]3O[C@H]1C[C@H](NC(=O)OCc2ccc(NC(=O)[C@H](CCCCN)NC(=O)[C@H](Cc3ccccc3)NC(C)=O)cc2)[C@H](O)[C@H](C)O1 [PADM, Ac-Phe-Lys-PABC-ADM], the half-life [1] was 16 min and the “changes (ADM release) in human plasma” value [2] was “no changes were observed”.
